Legend:
human V2 receptor = target: T1, human V2 receptor (Homo sapiens, UniProt P30518); assay: Cellular in vitro assay for vasopressin receptor activity, V2 cell line (CRE-luciferase); format: cell-based; details: CHO cell line transfected with human V2 receptor; agonist [Arg8]-vasopressin at EC50 concentration, 3 hours; read-out: IC50hV2
T1 construct: expressed in transfected cells; host or cells: CHO K1 (ATCC) line expressing firefly luciferase under a CRE-responsive promoter
Protocol: (§1) B-1. Cellular In Vitro Assay for Determining Vasopressin Receptor Activity
(§2) The identification of agonists and antagonists of the V1a and V2 vasopressin receptors from humans, rats and dogs as well as the quantification of the activity of the compounds of the invention is carried out using recombinant cell lines. These cell lines originally derive from a hamster's ovary epithelial cell (Chinese Hamster Ovary, CHO K1, ATCC: American Type Culture Collection, Manassas, Va. 20108, USA). The test cell lines constitutively express the human, rat or dog V1a or V2 receptors. In case of the Gαq-coupled V1a receptors, cells are also stably transfected with a modified form of the calcium-sensitive photoproteins aequorin (human and rat V1a) or obelin (dog V1a), which, after reconstitution with the cofactor coelenterazine, emit light when there are increases in free calcium concentrations [Rizzuto R, Simpson A W, Brini M, Pozzan T, Nature 358, 325-327 (1992); Illarionov B A, Bondar V S, Illarionova V A, Vysotski E S, Gene 153 (2), 273-274 (1995)]. The resulting vasopressin receptor cells react to stimulation of the recombinantly expressed V1a receptors by intracellular release of calcium ions, which can be quantified by the resulting photoprotein luminescence. The Gs-coupled V2 receptors are stably transfected into cell lines expressing the gene for firefly luciferase under control of a CRE-responsible promoter. Activation of V2 receptors induces the activation of the CRE-responsive promoter via cAMP increase, thereby inducing the expression of firefly luciferase. The light emitted by photoproteins of V1a cell lines as well as the light emitted by firefly luciferase of V2 cell lines corresponds to the activation or inhibition of the respective vasopressin receptor. The bioluminescence of the cell lines is detected using a suitable luminometer [Milligan G, Marshall F, Rees S, Trends in Pharmacological Sciences 17, 235-237 (1996)].
Vasopressin V2 Receptor Cell Lines:
On the day before the assay, the cells are plated out in culture medium (DMEM/F12, 2% FCS, 2 mM glutamine, 10 mM HEPES) in 384-well microtiter plates and kept in a cell incubator (96% humidity, 5% v/v CO2, 37° C.). On the day of the assay, test compounds in various concentrations and the agonist [Arg^8]-vasopressin at EC50 concentration are added together to the wells, and plates are incubated for 3 hours in a cell incubator. Upon addition of the cell lysis reagent Triton™ and the substrate luciferin, luminescence of firefly luciferase is measured in a luminometer.
(§3) Table 1A below lists individual IC50 values for the compounds of the invention (including racemic mixtures as well as separated enantiomers) that were obtained from cell lines transfected with the human V1a or V2 receptor: […]

human V1a receptor = target: T2, human V1a receptor (Homo sapiens, UniProt P37288); assay: Cellular in vitro assay for vasopressin receptor activity, V1a cell line (aequorin luminescence); format: cell-based; details: for IC50: CHO cell line transfected with human V1a receptor, agonist [Arg8]-vasopressin at EC50 concentration, read-out: IC50hV1a; for ratio IC50 hV2/hV1a: ratio of the IC50 on human V2 to the IC50 on human V1a
T2 construct: expressed in transfected cells; host or cells: CHO K1 (ATCC), also stably transfected with a modified aequorin
T2 sequence (P37288 whole entry): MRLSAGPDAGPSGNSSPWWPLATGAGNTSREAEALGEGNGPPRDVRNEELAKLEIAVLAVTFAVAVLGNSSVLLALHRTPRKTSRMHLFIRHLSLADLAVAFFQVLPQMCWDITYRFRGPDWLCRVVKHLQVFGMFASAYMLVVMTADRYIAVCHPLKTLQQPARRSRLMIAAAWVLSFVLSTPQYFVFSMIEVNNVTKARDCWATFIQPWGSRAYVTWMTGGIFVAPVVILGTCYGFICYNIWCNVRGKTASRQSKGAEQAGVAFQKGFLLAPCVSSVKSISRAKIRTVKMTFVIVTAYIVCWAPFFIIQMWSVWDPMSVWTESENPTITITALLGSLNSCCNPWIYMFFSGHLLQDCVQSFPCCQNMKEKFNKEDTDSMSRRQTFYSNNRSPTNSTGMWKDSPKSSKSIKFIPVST
Protocol: as §1, §2
Vasopressin V1a Receptor Cell Lines:
On the day before the assay, the cells are plated out in culture medium (DMEM/F12, 2% FCS, 2 mM glutamine, 10 mM HEPES, 5 μg/ml coelenterazine) in 384-well microtiter plates and kept in a cell incubator (96% humidity, 5% v/v CO2, 37° C.). On the day of the assay, test compounds in various concentrations are placed for 10 minutes in the wells of the microtiter plate before the agonist [Arg^8]-vasopressin at EC50 concentration is added. The resulting light signal is measured immediately in a luminometer.
as §3

T1 sequence (P30518 whole entry): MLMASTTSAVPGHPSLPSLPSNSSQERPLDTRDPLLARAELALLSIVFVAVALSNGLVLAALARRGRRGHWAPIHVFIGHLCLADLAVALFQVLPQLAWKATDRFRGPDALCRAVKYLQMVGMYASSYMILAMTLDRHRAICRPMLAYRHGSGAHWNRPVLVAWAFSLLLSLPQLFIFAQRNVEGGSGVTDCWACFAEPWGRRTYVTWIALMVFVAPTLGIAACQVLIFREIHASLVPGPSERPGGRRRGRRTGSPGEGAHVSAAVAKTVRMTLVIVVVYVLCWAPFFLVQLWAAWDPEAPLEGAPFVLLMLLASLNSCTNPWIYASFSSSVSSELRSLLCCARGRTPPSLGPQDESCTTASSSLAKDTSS

Compound | IC50 (human V2 receptor) [nM] | IC50 (human V1a receptor) [nM] | ratio IC50 hV2/hV1a (human V1a receptor)
CC(F)(F)c1nc(Cn2nc(-c3ccc(Cl)cc3)n(C[C@H](O)C(F)(F)F)c2=O)nn1-c1ccccc1OC(F)F [Example 63, 5-(4-Chlorophenyl)-2-({5-(1,1-difluoroethyl)-1-[2-(difluoromethoxy)phenyl]-1H-1,2,4-triazol-3-yl}methyl)-4-[(2S)-3,3,3-trifluoro-2-hydroxypropyl]-2,4-dihydro-3H-1,2,4-triazol-3-one] | 6.95 | 2.1 | 3.3
CC(F)c1nc(Cn2nc(-c3ccc(Cl)cc3)n(C[C@H](O)C(F)(F)F)c2=O)nn1-c1ccccc1OC(F)F (mixture of isomers) [Example 31, 5-(4-Chlorophenyl)-2-({1-[2-(difluoromethoxy)phenyl]-5-[1-fluoroethyl]-1H-1,2,4-triazol-3-yl}methyl)-4-[(2S)-3,3,3-trifluoro-2-hydroxypropyl]-2,4-dihydro-3H-1,2,4-triazol-3-one] | 4.58 | 1.75 | 2.6
CC(F)(F)c1nc(Cn2nc(-c3ccc(Cl)cc3)n(C[C@H](O)C(F)(F)F)c2=O)nn1-c1c(F)cccc1Cl [Example 69, 2-{[1-(2-Chloro-6-fluorophenyl)-5-(1,1-difluoroethyl)-1H-1,2,4-triazol-3-yl]methyl}-5-(4-chlorophenyl)-4-[(2S)-3,3,3-trifluoro-2-hydroxypropyl]-2,4-dihydro-3H-1,2,4-triazol-3-one] | 6.9 | 2.95 | 2.3
Cc1ccccc1-n1nc(Cn2nc(-c3ccc(Cl)cc3)n(C[C@H](O)C(F)(F)F)c2=O)nc1C(C)F (mixture of isomers) [Example 34, 5-(4-Chlorophenyl)-2-({5-[1-fluoroethyl]-1-(2-methylphenyl)-1H-1,2,4-triazol-3-yl}methyl)-4-[(2S)-3,3,3-trifluoro-2-hydroxypropyl]-2,4-dihydro-3H-1,2,4-triazol-3-one] | 0.84 | 0.71 | 1.2
Cc1cccc(C)c1-n1nc(Cn2nc(-c3ccc(Cl)cc3)n(C[C@H](O)C(F)(F)F)c2=O)nc1C(C)(F)F [Example 71, 5-(4-Chlorophenyl)-2-{[5-(1,1-difluoroethyl)-1-(2,6-dimethylphenyl)-1H-1,2,4-triazol-3-yl]methyl}-4-[(2S)-3,3,3-trifluoro-2-hydroxypropyl]-2,4-dihydro-3H-1,2,4-triazol-3-one] | 4.27 | 5.3 | 0.8
CC(F)c1nc(Cn2nc(-c3ccc(Cl)cc3)n(C[C@H](O)C(F)(F)F)c2=O)nn1-c1cccc(F)c1 (single isomer, unassigned) [Example 14] | 1.73 | 9.7 | 0.2
Cc1ccccc1-n1nc(Cn2nc(-c3ccc(Cl)cc3)n(C[C@H](O)C(F)(F)F)c2=O)nc1C(C)(F)F [Example 64, 5-(4-Chlorophenyl)-2-{[5-(1,1-difluoroethyl)-1-(2-methylphenyl)-1H-1,2,4-triazol-3-yl]methyl}-4-[(2S)-3,3,3-trifluoro-2-hydroxypropyl]-2,4-dihydro-3H-1,2,4-triazol-3-one] | 1.7 | 1.06 | 1.6
CC(F)c1nc(Cn2nc(-c3ccc(Cl)cc3)n(C[C@H](O)C(F)(F)F)c2=O)nn1-c1cccc(Cl)c1 (single isomer, unassigned) [Example 17] | 0.25 | 9.25 | 0.0
CCc1ccccc1-n1nc(Cn2nc(-c3ccc(Cl)cc3)n(C[C@H](O)C(F)(F)F)c2=O)nc1C(C)(F)F [Example 62, 5-(4-Chlorophenyl)-2-{[5-(1,1-difluoroethyl)-1-(2-ethylphenyl)-1H-1,2,4-triazol-3-yl]methyl}-4-[(2S)-3,3,3-trifluoro-2-hydroxypropyl]-2,4-dihydro-3H-1,2,4-triazol-3-one] | 2.25 | 2.2 | 1.0
CC(F)c1nc(Cn2nc(-c3ccc(Cl)cc3)n(C[C@H](O)C(F)(F)F)c2=O)nn1-c1ccccc1OC(F)F (single isomer, unassigned) [Example 33] | 1.8 | 2.15 | 0.8
CC(F)c1nc(Cn2nc(-c3ccc(Cl)cc3)n(C[C@H](O)C(F)(F)F)c2=O)nn1-c1ccccc1C#N (mixture of isomers) [Example 38, 2-{3-({3-(4-Chlorophenyl)-5-oxo-4-[(2S)-3,3,3-trifluoro-2-hydroxypropyl]-4,5-dihydro-1H-1,2,4-triazol-1-yl}methyl)-5-[1-fluoroethyl]-1H-1,2,4-triazol-1-yl}benzonitrile] | 165 | 82 | 2.0

Continued by falling IC50 (human V2 receptor), values first:

IC50 (human V2 receptor) [nM] | IC50 (human V1a receptor) [nM] | ratio IC50 hV2/hV1a (human V1a receptor) | Compound
74.8 | 6.95 | 10.8 | CC(F)c1nc(Cn2nc(-c3ccc(Cl)cc3)n(C[C@H](O)C(F)(F)F)c2=O)nn1-c1cnccc1Cl (single isomer, unassigned) [Example 5]
8.9 | 2.4 | 3.7 | CC(F)c1nc(Cn2nc(-c3ccc(Cl)cc3)n(C[C@H](O)C(F)(F)F)c2=O)nn1-c1ccccc1OC(F)F (single isomer, unassigned) [Example 32]
5.95 | 1.35 | 4.4 | CC(F)c1nc(Cn2nc(-c3ccc(Cl)cc3)n(C[C@H](O)C(F)(F)F)c2=O)nn1-c1ncccc1Cl (single isomer, unassigned) [Example 20]
5.92 | 10.8 | 0.5 | O=c1n(Cc2nc(C(F)F)n(-c3cccc(F)c3)n2)nc(-c2ccc(Cl)cc2)n1C[C@H](O)C(F)(F)F [Example 52, 5-(4-Chlorophenyl)-2-{[5-(difluoromethyl)-1-(3-fluorophenyl)-1H-1,2,4-triazol-3-yl]methyl}-4-[(2S)-3,3,3-trifluoro-2-hydroxypropyl]-2,4-dihydro-3H-1,2,4-triazol-3-one]
5.4 | 0.85 | 6.4 | O=c1n(Cc2nc(C(F)(F)C3(O)CCCC3)n(-c3ccccc3Cl)n2)nc(-c2ccc(Cl)cc2)n1C[C@H](O)C(F)(F)F [Example 75, 5-(4-Chlorophenyl)-2-({1-(2-chlorophenyl)-5-[difluoro(1-hydroxycyclopentyl)methyl]-1H-1,2,4-triazol-3-yl}methyl)-4-[(2S)-3,3,3-trifluoro-2-hydroxypropyl]-2,4-dihydro-3H-1,2,4-triazol-3-one]
3.15 | 0.91 | 3.5 | NCC(F)(F)c1nc(Cn2nc(-c3ccc(Cl)cc3)n(C[C@H](O)C(F)(F)F)c2=O)nn1-c1ccccc1Cl.O=CO [Example 76, 2-{[5-(2-Amino-1,1-difluoroethyl)-1-(2-chlorophenyl)-1H-1,2,4-triazol-3-yl]methyl}-5-(4-chlorophenyl)-4-[(2S)-3,3,3-trifluoro-2-hydroxypropyl]-2,4-dihydro-3H-1,2,4-triazol-3-one]
2.27 | 1.75 | 1.3 | CC(F)(F)c1nc(Cn2nc(-c3ccc(Cl)cc3)n(C[C@H](O)C(F)(F)F)c2=O)nn1-c1c(F)cccc1F [Example 70, 5-(4-Chlorophenyl)-2-{[5-(1,1-difluoroethyl)-1-(2,6-difluorophenyl)-1H-1,2,4-triazol-3-yl]methyl}-4-[(2S)-3,3,3-trifluoro-2-hydroxypropyl]-2,4-dihydro-3H-1,2,4-triazol-3-one]

— US10525041B2, “Fluoroalkyl-substituted aryltriazole derivatives and uses thereof” (BAYER PHARMA AKTIENGESELLSCHAFT, priority 2016, dated 2020)
